Laboratory results published in patent publication US12427128B2, “Sensorineural hair cell differentiation” (Massachusetts Eye and Ear Infirmary, priority 2014, dated 2025).

Experiments:
organ of Corti explants = assay: Hair cell number in organ of Corti explants from Atoh1-GFP mice; format: cell-based, mouse; settings: for new hair cells in organ of Corti explants: P1-P2 explants, 48 h
Description: In this example, modulation of Pax2 and Sox2 expression in the differentiating inner ear cells included reducing Sox2 expression levels while increasing Pax2 expression level. Sox2 expression was modulated using DAFT (Jeon et al., j. Neurosci., 31:8351-8358 (2011)). Pax2 expression was modulated using FGF2 (Adamska et al., Mech. Dev., 109:303-313 (2001); Mansukhani et al., J. Cell. Biol., 168:1065-1076 (2005)). DAPT was used to decrease Sox2 and FGF2 to activate Pax2 expression in inner ear stein cells (see FIG. 12A). 4th-5th generation spheres or OC explants (P1-P2) were plated in 4-well plates (Greiner) on round 10 mm glass coverslips coated with poly-L-lysine (Cultrex) and attachment took place overnight in 10% FBS/DMEM-high glucose (GIBCO). Attachment was ensured with microscopic inspection and the medium was changed to serum-free DMEM-high glucose/F12 (mixed 1:1, GIBCO) and N2 and B27 (Invitrogen). Spheres were differentiated for 3, 7 or 10 d. For treatment, either DAFT (2.5 μM) or FGF (20 ng/ml) or control medium containing only DMSO (0.1%) were applied for 7d on spheres and 48 h on OC explants. Cells were harvested and further analyzed by immunohistochemistry. Axiovision 4.3 was used for data acquisition and the number of cells was quantified with Metamorph software. Cell counts were expressed as mean±standard deviation. An average of 1,000 cells were counted for spheres or 100 μm for OC explants. Origin software was used for statistical evaluation. Cell detection techniques are described in the Examples above.
Samples were obtained and detected using methods described above. Organ of Corti explants (P1-P2) from Atoh1-GFP mice were contacted with DAPT, FGF2, or a combination of both for 48 h. Hair cell number was then assessed.

Atoh1 = Atoh1 expression by quantitative RT-PCR in OC-1 cells; format: cell-based, mouse; settings: OC-1 cells treated with HDAC inhibitors
Procedure: Atoh1 levels were measured in vitro in OC-1 cells or spheres by quantitative RT-PCR. For RT-PCR. total RNA was extracted from OC-1 cells or spheres treated with RAPT, FGF2, or DART and RNAi with the RiNeasy Maxi Kit (Qiagen) according to the manufacturer's instructions. RNA was denatured at 65° C. for 5 min. For reverse transcription, ImProm II (Promega) was used with random hexamers. Reverse transcription conditions were 25° C. for 5 min followed by 42° C. for 60 min. Reactions were terminated at 70° C. for 15 min. c: ANAs were mixed with Platinum quantitative PCR Supermix ROX with UDG (Invitrogen) and primers for Atoh1, Pax2 or Sox2 (ABI) according to the manufacturer's instructions. Gene expression was measured relative to 18S RNA. Samples were analyzed in 96 well plates in triplicate by quantitative PCR (Applied Biosystems 7900HT) using the following conditions: initial denaturation at 95° C. for 2 min, denaturation at 95° C. for 40 s and annealing/extension at 60′ C for 35 s for 45 cycles.
To address whether interaction with DNA-binding co-factors influenced bound histones at the Atoh1 locus, drugs that block histone modifications were used.

## C[C@H](NC(=O)Cc1cc(F)cc(F)c1)C(=O)N[C@H](C(=O)OC(C)(C)C)c1ccccc1 [DAPT]
Organ of Corti explants
  new hair cells in organ of Corti explants: additional outer hair cells were seen in the apex
Organ of Corti explants; postnatal explants, DAPT with control siRNA
  numbers of hair cells: Increased numbers of hair cells

## CC(/C=C/C(=O)NO)=C\[C@@H](C)C(=O)c1ccc(N(C)C)cc1 [TSA, Trichostatin A]
Atoh1
  expression of Atoh1, qRT-PCR relative to 18S RNA: increased expression of Atoh1

## CCCC(CCC)C(=O)O [VPA, valproic acid]
Atoh1
  expression of Atoh1, qRT-PCR relative to 18S RNA: increased expression of Atoh1

## FGF2: growth factor used to activate Pax2 expression in inner ear stem cells; 20 ng/ml
Organ of Corti explants
  new hair cells in organ of Corti explants: additional outer hair cells were seen in the apex
